Results published in ChEMBL document CHEMBL1140849, “Selective small molecule inhibitors of the potential breast cancer marker, human arylamine N-acetyltransferase 1, and its murine homologue, mouse arylamine N-acetyltransferase 2” (Bioorg Med Chem, 2009).
Activity calls are given as the source filed them. The calls are words filed in the database; no cut-off is given here.

Legend:
[1] = target: T1, Arylamine N-acetyltransferase 1 (Homo sapiens, UniProt P18440); experiment: Inhibition of human recombinant NAT1 assessed as hydrolysis of acetyl coA using PABA as substrate by Ellman's method
T1 sequence (P18440 whole entry): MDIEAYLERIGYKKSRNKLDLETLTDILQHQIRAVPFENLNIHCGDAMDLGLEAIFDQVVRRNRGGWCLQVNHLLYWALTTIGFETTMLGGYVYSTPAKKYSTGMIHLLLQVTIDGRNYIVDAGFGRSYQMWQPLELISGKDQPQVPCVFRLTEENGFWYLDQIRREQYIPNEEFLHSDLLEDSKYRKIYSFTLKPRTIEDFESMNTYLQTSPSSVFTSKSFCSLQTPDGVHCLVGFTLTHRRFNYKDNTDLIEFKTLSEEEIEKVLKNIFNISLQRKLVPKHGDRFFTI

Mycobacterium marinum [2] = experiment: Inhibition of Mycobacterium marinum recombinant NAT using isoniazid as substrate at 30 uM
[3] = target: T2, Arylamine N-acetyltransferase (Pseudomonas aeruginosa (strain ATCC 15692 / PAO1 / 1C / PRS 101 / LMG12228), UniProt Q9HUY3); conditions: read-out: INH
T2 sequence (Q9HUY3 whole entry): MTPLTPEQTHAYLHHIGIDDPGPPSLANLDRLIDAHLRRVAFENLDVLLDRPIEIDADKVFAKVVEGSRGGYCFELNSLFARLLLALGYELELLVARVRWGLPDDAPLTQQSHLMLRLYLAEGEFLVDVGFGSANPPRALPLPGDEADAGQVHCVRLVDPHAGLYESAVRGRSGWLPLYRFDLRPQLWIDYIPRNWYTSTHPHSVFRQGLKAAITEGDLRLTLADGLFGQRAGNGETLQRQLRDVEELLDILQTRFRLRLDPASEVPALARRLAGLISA
Description: Inhibition of Pseudomonas aeruginosa recombinant NAT using isoniazid as substrate at 30 uM

[4] = target: T3, Arylamine N-acetyltransferase 2 (Mus musculus, UniProt P50295); experiment: Inhibition of mouse recombinant NAT2 assessed as hydrolysis of acetyl coA using PABA as substrate by Ellman's method
T3 sequence (P50295 whole entry): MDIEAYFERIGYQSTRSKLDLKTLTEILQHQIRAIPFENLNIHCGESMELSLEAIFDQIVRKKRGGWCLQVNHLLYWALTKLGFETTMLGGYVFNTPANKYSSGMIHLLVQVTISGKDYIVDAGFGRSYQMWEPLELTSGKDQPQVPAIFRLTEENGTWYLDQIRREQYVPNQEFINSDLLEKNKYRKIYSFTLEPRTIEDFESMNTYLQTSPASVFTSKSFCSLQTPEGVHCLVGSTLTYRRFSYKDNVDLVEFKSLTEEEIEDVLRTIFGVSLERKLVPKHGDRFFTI

[5] = Cytotoxicity against mouse macrophage at 10 ug/ml after 72 hrs by trypan blue exclusion method; assay type: cell-based
[6] = target: T4, Arylamine N-acetyltransferase 2 (NAT2) (Mus musculus, UniProt P50295); experiment: Inhibition of mouse recombinant NAT2 using 5-aminosalicylic acid as substrate at 30 uM; conditions: recombinant NAT2, probe 5-aminosalicylic acid
T4 sequence (P50295 whole entry): T3 sequence (P50295 whole entry)

[7] = target: T5, Arylamine N-acetyltransferase 2 (NAT2) (Homo sapiens, UniProt P11245); experiment: Inhibition of human recombinant NAT2 using 5-aminosalicylic acid as substrate at 30 uM; conditions: recombinant NAT2, probe 5-aminosalicylic acid
T5 sequence (P11245 whole entry): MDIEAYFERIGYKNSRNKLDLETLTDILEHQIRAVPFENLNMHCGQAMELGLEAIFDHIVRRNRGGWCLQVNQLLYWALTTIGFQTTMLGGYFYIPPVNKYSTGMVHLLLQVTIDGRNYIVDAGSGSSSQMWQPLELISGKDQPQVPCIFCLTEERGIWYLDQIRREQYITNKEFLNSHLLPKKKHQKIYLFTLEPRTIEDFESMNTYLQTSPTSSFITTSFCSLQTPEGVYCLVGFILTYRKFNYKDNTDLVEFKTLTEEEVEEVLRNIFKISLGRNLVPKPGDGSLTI

[8] = target: T2, Arylamine N-acetyltransferase; experiment: Inhibition of Pseudomonas aeruginosa recombinant NAT using 5-aminosalicylic acid as substrate at 30 uM; conditions: read-out: INH
ZR75 = experiment: Inhibition of NAT in human ZR75 cell lysate assessed as acetylation of aryl amine using PABA as substrate at 30 uM; assay type: cell-free
[9] = target: T3, Arylamine N-acetyltransferase 2; experiment: Inhibition of mouse recombinant NAT2 using PABA as substrate at 30 uM
Mycobacterium marinum [10] = conditions: 30 uM
Description: Inhibition of Mycobacterium marinum recombinant NAT using 5-aminosalicylic acid as substrate at 30 uM

## O=C1NC(=S)S/C1=C\c1ccc(Cl)cc1
[1]
  IC50: 4.7 µM
Mycobacterium marinum [2]
  inhibition: < 40%
[3]
  inhibition at 30 µM: < 40%

## C/C(=C1/SC(=S)NC1=O)c1ccccc1
[4]
  IC50: 25 µM

## CN1C(=O)/C(=C/c2ccc(F)cc2)SC1=S
[4]
  IC50: 20.7 µM

## Cc1ccccc1/C=C1\SC(=S)NC1=O
[3]
  inhibition at 30 µM: < 40%

## CN1C(=O)/C(=C/c2ccccc2)SC1=S
[4]
  IC50: > 30 µM

## O=C1NC(=S)S/C1=C\Cc1ccccc1
[4]
  IC50: 24.2 µM

## Cc1cccc(/C=C2\SC(=S)N(C)C2=O)c1
[4]
  IC50: > 30 µM

## CN1C(=O)/C(=C/c2ccccc2O)SC1=S
[4]
  IC50: 20.1 µM

## CN1C(=O)/C(=C/c2ccccc2-c2ccccc2)SC1=S
[4]
  IC50: 10.1 µM

## O=C1NC(=S)S/C1=C\c1cccc(F)c1
[4]
  IC50: 6.7 µM

## O=C1NC(=S)S/C1=C\c1ccc(F)cc1
[1]
  IC50: 12.9 µM
Mycobacterium marinum [2]
  inhibition: < 40%
[3]
  inhibition at 30 µM: < 40%

## Cc1cccc(/C=C2\SC(=S)NC2=O)c1
Mycobacterium marinum [2]
  inhibition: < 40%
[3]
  inhibition at 30 µM: < 40%

## O=C1NC(=S)S/C1=C\c1ccccc1O
[5]
  Activity: < 80%
Mycobacterium marinum [2]
  inhibition: < 40%
[3]
  inhibition at 30 µM: < 40%

## Cc1ccc(/C=C2\SC(=S)N(C)C2=O)cc1
[4]
  IC50: > 30 µM

## Cc1ccc(/C=C2\SC(=S)NC2=O)cc1
[1]
  IC50: > 30 µM
[3]
  inhibition at 30 µM: < 40%

## CN1C(=O)/C(=C/c2ccc3ccccc3c2)SC1=S
[4]
  IC50: 4.7 µM

## CCCCC/C=C1\SC(=S)NC1=O
[4]
  IC50: 1.3 µM

## O=C1NC(=S)S/C1=C\c1ccc(-c2ccccc2)cc1
Mycobacterium marinum [2]
  inhibition: < 40%
[3]
  inhibition at 30 µM: < 40%

## O=C1NC(=S)S/C1=C\c1cccc2ccccc12
[4]
  IC50: > 30 µM

## CN1C(=O)/C(=C/c2cccc(F)c2)SC1=S
[4]
  IC50: 7.3 µM

## O=C1NC(=S)S/C1=C\c1ccc(Cl)c(Cl)c1
Mycobacterium marinum [2]
  inhibition: < 40%
[3]
  inhibition at 30 µM: < 40%

## O=C1NC(=S)S/C1=C\c1ccccc1F
[4]
  IC50: > 30 µM

## CN1C(=O)/C(=C/c2ccc(-c3ccccc3)cc2)SC1=S
[4]
  IC50: 5.5 µM

## CN1C(=O)/C(=C/c2ccccc2F)SC1=S
[4]
  IC50: 11.8 µM

## COc1ccc(/C=C2\SC(=S)NC2=O)cc1
[1]
  IC50: > 30 µM
Mycobacterium marinum [2]
  inhibition: < 40%
[3]
  inhibition at 30 µM: < 40%

## C/C(=C1/SC(=S)N(C)C1=O)c1ccccc1
[4]
  IC50: > 30 µM

## CN1C(=O)/C(=C/Cc2ccccc2)SC1=S
[4]
  IC50: > 30 µM

## COc1ccccc1/C=C1\SC(=S)N(C)C1=O
[4]
  IC50: > 30 µM

## O=C1NC(=S)S/C1=C\c1cc(I)c(O)c(I)c1
[6]
  inhibition at 30 µM: 104%
[7]
  inhibition at 30 µM: 46%
[8]
  inhibition at 30 µM: 52%
ZR75
  Activity: Active
[5]
  Activity: > 80%
[9]
  Activity: Active
Mycobacterium marinum [2]
  inhibition: < 40%
[3]
  inhibition at 30 µM: < 40%
Mycobacterium marinum [10]
  inhibition: 40%

## COc1cccc(/C=C2\SC(=S)NC2=O)c1
[1]
  IC50: > 30 µM
Mycobacterium marinum [2]
  inhibition: < 40%
[3]
  inhibition at 30 µM: < 40%

## COc1ccccc1/C=C1\SC(=S)NC1=O
[1]
  IC50: 17.6 µM
Mycobacterium marinum [2]
  inhibition: < 40%
[3]
  inhibition at 30 µM: < 40%

## NN1C(=O)/C(=C/c2ccccc2-c2ccccc2)SC1=S
[4]
  IC50: 0.3 µM
[5]
  Activity: < 80%

## CN1C(=O)/C(=C/c2cccc3ccccc23)SC1=S
[4]
  IC50: > 30 µM

## CN1C(=O)/C(=C/c2ccc(Cl)cc2)SC1=S
[4]
  IC50: 9.4 µM

## O=C1NC(=S)S/C1=C\c1ccccc1-c1ccccc1
[4]
  IC50: 16.5 µM

## CN1C(=O)/C(=C/c2ccc(O)cc2)SC1=S
[4]
  IC50: 14 µM

## NN1C(=O)/C(=C/c2ccc(O)cc2)SC1=S
[4]
  IC50: 10.1 µM

## NN1C(=O)/C(=C/c2ccc(Cl)cc2)SC1=S
[4]
  IC50: 5.7 µM

## CCCCCCC/C=C1\SC(=S)NC1=O
[4]
  IC50: 6.8 µM

## O=C1NC(=S)S/C1=C\c1ccc(Br)cc1
[4]
  IC50: > 30 µM

## O=C1NC(=S)S/C1=C\c1ccc(O)cc1
[1]
  IC50: 16.9 µM
Mycobacterium marinum [2]
  inhibition: < 40%
[3]
  inhibition at 30 µM: < 40%

## O=C1NC(=S)S/C1=C\c1ccc2ccccc2c1
[4]
  IC50: 26.9 µM

## COc1cccc(/C=C2\SC(=S)N(C)C2=O)c1
[4]
  IC50: 13.6 µM

## CCC/C=C1\SC(=S)NC1=O
[4]
  IC50: 7.7 µM

## O=C1NC(=O)/C(=C/c2ccc3ccccc3c2)S1
[4]
  IC50: > 30 µM

## CCCCCCCCC/C=C1\SC(=S)NC1=O
[4]
  IC50: 10.2 µM

## Cc1ccccc1/C=C1\SC(=S)N(C)C1=O
[4]
  IC50: 4.4 µM

## O=C1NC(=S)S/C1=C\c1cccc(O)c1
[5]
  Activity: < 80%
Mycobacterium marinum [2]
  inhibition: < 40%
[3]
  inhibition at 30 µM: < 40%

## NN1C(=O)/C(=C/c2cc(I)c(O)c(I)c2)SC1=S
[5]
  Activity: < 80%

## COc1ccc(/C=C2\SC(=S)N(C)C2=O)cc1
[4]
  IC50: 1 µM

## NN1C(=O)/C(=C/c2ccccc2O)SC1=S
[4]
  IC50: 5.1 µM
[5]
  Activity: < 80%
